{"source": "patent EP0804400B1", "about": "“HYDROFORMYLATION OF A MULTI-COMPONENT FEED STREAM” (ExxonMobil Research and Engineering Company, priority 1995, dated 1996)", "key": {"[1]": {"settings": "0.1 MPa partial pressure, 22 °C; for Xi x 10^4: mol fraction; for Ci: molarity", "description": "(§1) In the autoclave experiments the solvent was thoroughly degassed in the autoclave before the gas was charged without stirring. After a short temperature equilibration the pressure and temperature in the autoclave was recorded and then the solvent was stirred until no further pressure drop could be observed. From the known gas volume and pressure drop the amount of dissolved gas was calculated. In the ^1H NMR experiments either the solvent (propanal) or hexamethylbenzene served as an internal standard."}, "[2]": {"settings": "0.1 MPa partial pressure", "description": "as §1"}, "[3]": {"settings": "cited from earlier work; for Xi x 10^4: mol fraction; for Ci: molarity"}, "[4]": {"settings": "mol fraction of gas in liquid phase, solvent Tetraglyme containing 7.8 w.% PPh3, 20 °C"}, "[5]": {"settings": "mol fraction, solvent Tetraglyme containing 7.8 w.% PPh3, 100 °C"}, "[6]": {"settings": "molarity of gas in liquid phase, solvent Tetraglyme containing 7.8 w.% PPh3, 20 °C"}, "[7]": {"settings": "molarity, solvent Tetraglyme containing 7.8 w.% PPh3, 100 °C"}, "[8]": {"settings": "solvent 2-Methylbutanal, 30 °C, ref. e"}, "[9]": {"settings": "solvent 2-Methylbutanal, 100 °C, ref. e"}, "[10]": {"settings": "solvent Formaldehyde diethyl acetal, 30 °C, ref. g"}, "[11]": {"settings": "solvent 1-Butyl acetate, 18 °C, ref. l"}, "[12]": {"settings": "solvent 1-Propyl acetate, 18 °C, ref. l"}, "[13]": {"settings": "solvent 2-Ethylhexanol-1, 100 °C, ref. w"}, "[14]": {"settings": "solvent 2-Propyl acetate, 18 °C, ref. l"}, "[15]": {"settings": "solvent Ethyl acetate, 18 °C, ref. l"}, "[16]": {"settings": "solvent Ethylene glycol dimethyl (ether), 100 °C, ref. t"}, "[17]": {"settings": "solvent Methyl acetate, 18 °C, ref. l"}, "[18]": {"settings": "solvent Methyl butanoate, 18 °C, ref. l"}, "[19]": {"settings": "solvent Methyl propanoate, 18 °C, ref. l"}, "[20]": {"settings": "solvent Propionaldehyde, 100 °C, ref. k"}, "[21]": {"settings": "solvent cell prints 'ether' (wrapped line), 100 °C, ref. v"}}, "note": "Like-named read-outs stand apart in the source and are kept apart here."}
{"compound": "C#C", "note": "[Acetylene]", "values": [{"measurement": "Xi x 10^4", "setting": "[1]; solvent Propanal", "result": 402.0}, {"measurement": "Ci", "setting": "[1]; solvent Propanal", "result": 557.7, "unit": "mmol/L"}, {"measurement": "Xi x 10^4", "setting": "[2]; [4]", "result": 1224.0}, {"measurement": "Xi x 10^4", "setting": "[2]; [5]", "result": 242.0}, {"measurement": "Xi x 10^4", "setting": "[2]; mol fraction, solvent Toluene, 20 °C", "result": 246.7}, {"measurement": "Xi x 10^4", "setting": "[2]; mol fraction, solvent Toluene, 100 °C", "result": 178.0}, {"measurement": "Ci", "setting": "[2]; [6]", "result": 577.0, "unit": "mmol/L"}, {"measurement": "Ci", "setting": "[2]; [7]", "result": 103.0, "unit": "mmol/L"}, {"measurement": "Ci", "setting": "[2]; molarity, solvent Toluene, 20 °C", "result": 220.6, "unit": "mmol/L"}, {"measurement": "Ci", "setting": "[2]; molarity, solvent Toluene, 100 °C", "result": 147.7, "unit": "mmol/L"}]}
{"compound": "[C-]#[O+]", "note": "[Carbon monoxide]", "values": [{"measurement": "Xi x 10^4", "setting": "[3]; [8]", "result": 10.96}, {"measurement": "Xi x 10^4", "setting": "[3]; [9]", "result": 13.93}, {"measurement": "Xi x 10^4", "setting": "[2]; [4]", "result": 11.3}, {"measurement": "Xi x 10^4", "setting": "[2]; [5]", "result": 34.6}, {"measurement": "Ci", "setting": "[2]; [6]", "result": 4.9, "unit": "mmol/L"}, {"measurement": "Ci", "setting": "[2]; [7]", "result": 14.2, "unit": "mmol/L"}]}
{"compound": "CC", "note": "[Ethane]", "values": [{"measurement": "Xi x 10^4", "setting": "[3]; [10]", "result": 214.00}, {"measurement": "Ci", "setting": "[3]; [10]", "result": 201.89, "unit": "mmol/L"}]}
{"compound": "C=C", "note": "[Ethylene]", "values": [{"measurement": "Xi x 10^4", "setting": "[3]; [10]", "result": 185.00}, {"measurement": "Ci", "setting": "[3]; [10]", "result": 174.53, "unit": "mmol/L"}, {"measurement": "Xi x 10^4", "setting": "[1]; solvent Propanal", "result": 115.0}, {"measurement": "Ci", "setting": "[1]; solvent Propanal", "result": 159.6, "unit": "mmol/L"}, {"measurement": "Xi x 10^4", "setting": "[2]; [4]", "result": 134.0}, {"measurement": "Xi x 10^4", "setting": "[2]; [5]", "result": 76.0}, {"measurement": "Ci", "setting": "[2]; [6]", "result": 60.0, "unit": "mmol/L"}, {"measurement": "Ci", "setting": "[2]; [7]", "result": 32.6, "unit": "mmol/L"}]}
{"compound": "[HH]", "note": "[Hydrogen]", "values": [{"measurement": "Xi x 10^4", "setting": "[3]; [11]", "result": 4.29}, {"measurement": "Xi x 10^4", "setting": "[3]; [12]", "result": 4.15}, {"measurement": "Xi x 10^4", "setting": "[3]; [13]", "result": 5.85}, {"measurement": "Xi x 10^4", "setting": "[3]; [8]", "result": 8.55}, {"measurement": "Xi x 10^4", "setting": "[3]; [9]", "result": 11.45}, {"measurement": "Xi x 10^4", "setting": "[3]; [14]", "result": 4.83}, {"measurement": "Xi x 10^4", "setting": "[3]; [15]", "result": 3.46}, {"measurement": "Xi x 10^4", "setting": "[3]; [16]", "result": 6.20}, {"measurement": "Xi x 10^4", "setting": "[3]; [10]", "result": 5.37}, {"measurement": "Xi x 10^4", "setting": "[3]; [17]", "result": 2.51}, {"measurement": "Xi x 10^4", "setting": "[3]; [18]", "result": 4.67}, {"measurement": "Xi x 10^4", "setting": "[3]; [19]", "result": 3.77}, {"measurement": "Xi x 10^4", "setting": "[3]; [20]", "result": 5.95}, {"measurement": "Xi x 10^4", "setting": "[3]; [21]", "result": 6.58}, {"measurement": "Xi x 10^4", "setting": "[3]; solvent printed 2-Ethylhexanol-1 (second line), 100 °C, ref. v", "result": 5.97}, {"measurement": "Ci", "setting": "[3]; [11]", "result": 3.64, "unit": "mmol/L"}, {"measurement": "Ci", "setting": "[3]; [12]", "result": 3.99, "unit": "mmol/L"}, {"measurement": "Ci", "setting": "[3]; [13]", "result": 3.45, "unit": "mmol/L"}, {"measurement": "Ci", "setting": "[3]; [14]", "result": 4.64, "unit": "mmol/L"}, {"measurement": "Ci", "setting": "[3]; [15]", "result": 3.84, "unit": "mmol/L"}, {"measurement": "Ci", "setting": "[3]; [16]", "result": 5.32, "unit": "mmol/L"}, {"measurement": "Ci", "setting": "[3]; [10]", "result": 5.07, "unit": "mmol/L"}, {"measurement": "Ci", "setting": "[3]; [17]", "result": 3.30, "unit": "mmol/L"}, {"measurement": "Ci", "setting": "[3]; [18]", "result": 4.49, "unit": "mmol/L"}, {"measurement": "Ci", "setting": "[3]; [19]", "result": 4.19, "unit": "mmol/L"}, {"measurement": "Ci", "setting": "[3]; [21]", "result": 3.89, "unit": "mmol/L"}, {"measurement": "Xi x 10^4", "setting": "[1]; solvent d^8-Toluene", "result": 3.5}, {"measurement": "Xi x 10^4", "setting": "[2]; [4]", "result": 5.1}, {"measurement": "Xi x 10^4", "setting": "[2]; [5]", "result": 7.3}, {"measurement": "Ci", "setting": "[2]; [6]", "result": 2.2, "unit": "mmol/L"}, {"measurement": "Ci", "setting": "[2]; [7]", "result": 3.0, "unit": "mmol/L"}]}
{"compound": "C", "note": "[Methane]", "values": [{"measurement": "Xi x 10^4", "setting": "[3]; [10]", "result": 37.40}, {"measurement": "Xi x 10^4", "setting": "[3]; [20]", "result": 20.90}]}
